In ChEMBL document CHEMBL2375251, “Anticancer activity of novel hybrid molecules containing 5-benzylidene thiazolidine-2,4-dione” (Eur J Med Chem, 2013):

What was measured:
Format in all cases: functional, cell-based
[1] = tested on: HeLa; assay: Cytotoxicity against human HeLa cells after 4 days by Coulter counter analysis; details: 96 h
[2] = tested on: CCRF-CEM; assay: Cytotoxicity against human CEM cells after 3 days by Coulter counter analysis; details: 72 h
[3] = tested on: L1210; assay: Cytotoxicity against mouse L1210 cells after 2 days by Coulter counter analysis; details: L1210, 48 h
[4] = tested on: FM3A; assay: Cytotoxicity against mouse FM3A cells after 2 days by Coulter counter analysis; details: 48 h

Nc1cccc(/C=C2\SC(=O)N(CCc3ccccc3)C2=O)c1 was tested, and the IC50 [1] was 250 µM, the IC50 [2] was 106 µM and the IC50 [3] was 142 µM. The IC50 [4] was 68 µM.

C=C(Br)C(=O)Nc1cccc(/C=C2\SC(=O)N(Cc3ccc(C)cc3)C2=O)c1 showed an IC50 [1] of 1.2 µM, an IC50 [2] of 1.2 µM and an IC50 [3] of 0.6 µM. It also gave an IC50 [4] of 1 µM.

Work on Nc1ccc(/C=C2\SC(=O)N(Cc3ccc(Cl)cc3)C2=O)cc1 yielded an IC50 [1] of 77 µM, an IC50 [2] of 87 µM and an IC50 [3] of 37 µM. For the same molecule, the IC50 [4] was 60 µM.

CC(C)(C)c1ccc(CN2C(=O)S/C(=C\c3cccc(N)c3)C2=O)cc1 showed an IC50 [1] of 145 µM, an IC50 [2] of 165 µM and an IC50 [3] of 223 µM. For the same molecule, the IC50 [4] was 188 µM.

C=C(Br)C(=O)Nc1cccc(/C=C2\SC(=O)N(CCc3ccccc3)C2=O)c1 gave an IC50 [1] of 3.5 µM, an IC50 [2] of 0.94 µM and an IC50 [3] of 1.3 µM. The IC50 [4] was 2.2 µM.

In the case of C=C(Br)C(=O)Nc1cccc(/C=C2\SC(=O)N(Cc3ccc(C(C)(C)C)cc3)C2=O)c1, the IC50 [1] is reported as 2.8 µM, the IC50 [2] is reported as 3 µM and the IC50 [3] is reported as 3.2 µM. For the same molecule, the IC50 [4] was 5.2 µM.

C=C(Br)C(=O)Nc1ccc(/C=C2\SC(=O)N(C)C2=O)cc1 gave an IC50 [1] of 0.87 µM, an IC50 [2] of 0.36 µM and an IC50 [3] of 0.19 µM. For the same molecule, the IC50 [4] was 0.75 µM.

Nc1ccc(/C=C2\SC(=O)N(Cc3ccccc3)C2=O)cc1 showed an IC50 [1] of 46 µM, an IC50 [2] of 42 µM and an IC50 [3] of 38 µM. It also gave an IC50 [4] of 24 µM.

In the case of Nc1cccc(/C=C2\SC(=O)N(Cc3cccc(Cl)c3)C2=O)c1, the IC50 [1] is reported as 250 µM, the IC50 [2] is reported as 195 µM and the IC50 [3] is reported as 211 µM. It also gave an IC50 [4] of 164 µM.

Molecule Nc1ccc(/C=C2\SC(=O)N(Cc3ccc(F)cc3)C2=O)cc1 has an IC50 [1] of 186 µM, an IC50 [2] of 111 µM and an IC50 [3] of 24 µM. For the same molecule, the IC50 [4] was 36 µM.

For C=C(Br)C(=O)Nc1cccc(/C=C2\SC(=O)N(Cc3ccc(Cl)cc3)C2=O)c1, the IC50 [1] was 2.7 µM, the IC50 [2] was 1.4 µM and the IC50 [3] was 0.94 µM. For the same molecule, the IC50 [4] was 1.6 µM.

Nc1ccc(/C=C2\SC(=O)N(CCc3ccccc3)C2=O)cc1 was tested, and the IC50 [1] was greater than 250 µM, the IC50 [2] was greater than 250 µM and the IC50 [3] was 217 µM. It also gave an IC50 [4] of 215 µM.

With C=C(Br)C(=O)Nc1cccc(/C=C2\SC(=O)N(Cc3cccc(Cl)c3)C2=O)c1 the IC50 [1] was 2.5 µM, the IC50 [2] was 1.4 µM and the IC50 [3] was 1.1 µM. For the same molecule, the IC50 [4] was 1.7 µM.

For Nc1cccc(/C=C2\SC(=O)N(Cc3cccc(F)c3)C2=O)c1, the IC50 [1] was greater than 250 µM, the IC50 [2] was 250 µM and the IC50 [3] was 199 µM. For the same molecule, the IC50 [4] was greater than 250 µM.

With C=C(Br)C(=O)Nc1ccc(/C=C2\SC(=O)N(Cc3cccc(F)c3)C2=O)cc1 the IC50 [1] was 5.9 µM, the IC50 [2] was 3.2 µM and the IC50 [3] was 1.2 µM. It also gave an IC50 [4] of 4 µM.

Molecule N[C@@H](Cc1ccc(N(CCCl)CCCl)cc1)C(=O)O [MELPHALAN] has an IC50 [2] of 3.5 µM and an IC50 [4] of 3.6 µM.

In the case of C=C(Br)C(=O)Nc1ccc(/C=C2\SC(=O)N(Cc3ccc(F)cc3)C2=O)cc1, the IC50 [1] is reported as 2 µM, the IC50 [2] is reported as 2.4 µM and the IC50 [3] is reported as 2.2 µM. It also gave an IC50 [4] of 4.6 µM.

Nc1ccc(/C=C2\SC(=O)N(Cc3cccc(F)c3)C2=O)cc1 gave an IC50 [1] of 250 µM, an IC50 [2] of 116 µM and an IC50 [3] of 100 µM. It also gave an IC50 [4] of 121 µM.

Molecule C=C(Br)C(=O)Nc1ccc(/C=C2\SC(=O)N(CC)C2=O)cc1 has an IC50 [1] of 1.4 µM, an IC50 [2] of 0.87 µM and an IC50 [3] of 0.5 µM. The IC50 [4] was 2.3 µM.

With C=C(Br)C(=O)Nc1ccc(/C=C2\SC(=O)N(Cc3ccc(C(F)(F)F)cc3)C2=O)cc1 the IC50 [1] was 13 µM, the IC50 [2] was 8 µM and the IC50 [3] was 12 µM. It also gave an IC50 [4] of 23 µM.

In the case of Nc1cccc(/C=C2\SC(=O)N(Cc3ccccc3)C2=O)c1, the IC50 [1] is reported as greater than 250 µM, the IC50 [2] is reported as greater than 250 µM and the IC50 [3] is reported as 233 µM. For the same molecule, the IC50 [4] was greater than 250 µM.

With C=C(Br)C(=O)Nc1ccc(/C=C2\SC(=O)N(CCc3ccccc3)C2=O)cc1 the IC50 [1] was 4.5 µM, the IC50 [2] was 4.2 µM and the IC50 [3] was 2.9 µM. The IC50 [4] was 5.5 µM.

CCN1C(=O)S/C(=C\c2ccc(N)cc2)C1=O was tested, and the IC50 [1] was 108 µM, the IC50 [2] was 91 µM and the IC50 [3] was 82 µM. The IC50 [4] was 76 µM.

For Cc1ccc(CN2C(=O)S/C(=C\c3ccc(N)cc3)C2=O)cc1, the IC50 [1] was greater than 250 µM, the IC50 [2] was greater than 250 µM and the IC50 [3] was 94 µM. The IC50 [4] was greater than 250 µM.

Nc1cccc(/C=C2\SC(=O)N(Cc3ccc(Cl)cc3)C2=O)c1 showed an IC50 [1] greater than 250 µM, an IC50 [2] greater than 250 µM and an IC50 [3] of 218 µM. It also gave an IC50 [4] of 246 µM.

Molecule C=C(Br)C(=O)Nc1ccc(/C=C2\SC(=O)N(Cc3ccccc3)C2=O)cc1 has an IC50 [1] of 1 µM, an IC50 [2] of 2.3 µM and an IC50 [3] of 1.1 µM. For the same molecule, the IC50 [4] was 3 µM.

Nc1cccc(/C=C2\SC(=O)N(Cc3ccc(C(F)(F)F)cc3)C2=O)c1 showed an IC50 [1] greater than 250 µM, an IC50 [2] greater than 250 µM and an IC50 [3] greater than 250 µM. For the same molecule, the IC50 [4] was greater than 250 µM.

C=C(Br)C(=O)Nc1ccc(/C=C2\SC(=O)N(Cc3ccc(Cl)cc3)C2=O)cc1 showed an IC50 [1] of 2.3 µM, an IC50 [2] of 2.8 µM and an IC50 [3] of 3.4 µM. It also gave an IC50 [4] of 5.1 µM.

Molecule C=C(Br)C(=O)Nc1ccc(/C=C2\SC(=O)N(Cc3ccc(C(C)(C)C)cc3)C2=O)cc1 has an IC50 [1] of 2.7 µM, an IC50 [2] of 0.83 µM and an IC50 [3] of 1.6 µM. It also gave an IC50 [4] of 4 µM.

Cc1ccc(CN2C(=O)S/C(=C\c3cccc(N)c3)C2=O)cc1 gave an IC50 [1] of 98 µM, an IC50 [2] greater than 250 µM and an IC50 [3] of 176 µM. The IC50 [4] was 158 µM.

In the case of CN1C(=O)S/C(=C\c2ccc(N)cc2)C1=O, the IC50 [1] is reported as 97 µM, the IC50 [2] is reported as 62 µM and the IC50 [3] is reported as 99 µM. It also gave an IC50 [4] of 107 µM.

Nc1cccc(/C=C2\SC(=O)N(Cc3ccc(F)cc3)C2=O)c1 showed an IC50 [1] of 86 µM, an IC50 [2] of 87 µM and an IC50 [3] of 142 µM. It also gave an IC50 [4] of 140 µM.

For CC(C)(C)c1ccc(CN2C(=O)S/C(=C\c3ccc(N)cc3)C2=O)cc1, the IC50 [1] was 53 µM, the IC50 [2] was 66 µM and the IC50 [3] was 94 µM. The IC50 [4] was 80 µM.

C=C(Br)C(=O)Nc1cccc(/C=C2\SC(=O)N(Cc3cccc(F)c3)C2=O)c1 gave an IC50 [1] of 2.7 µM, an IC50 [2] of 0.69 µM and an IC50 [3] of 0.59 µM. It also gave an IC50 [4] of 0.69 µM.

Work on C=C(Br)C(=O)Nc1ccc(/C=C2\SC(=O)N(Cc3cccc(Cl)c3)C2=O)cc1 yielded an IC50 [1] of 8.9 µM, an IC50 [2] of 3.7 µM and an IC50 [3] of 3.4 µM. The IC50 [4] was 6.1 µM.

With Nc1ccc(/C=C2\SC(=O)N(Cc3ccc(C(F)(F)F)cc3)C2=O)cc1 the IC50 [1] was 96 µM, the IC50 [2] was 32 µM and the IC50 [3] was 6 µM. The IC50 [4] was 134 µM.

Work on C=C(Br)C(=O)Nc1ccc(/C=C2\SC(=O)N(Cc3ccc(C)cc3)C2=O)cc1 yielded an IC50 [1] of 8.9 µM, an IC50 [2] of 3.7 µM and an IC50 [3] of 3.4 µM. For the same molecule, the IC50 [4] was 6.1 µM.

Nc1ccc(/C=C2\SC(=O)N(Cc3cccc(Cl)c3)C2=O)cc1 showed an IC50 [1] of 24 µM, an IC50 [2] of 18 µM and an IC50 [3] of 4.7 µM. For the same molecule, the IC50 [4] was 10 µM.
